For 30 compounds, Ki results are on record in patent US20090325959A1 (priority 2008, published 2009).

What all share (assay type): biochemical
In one experiment the target is T1, ROCK1 (Homo sapiens, UniProt Q13464).
T1 construct: purchased Upstate/Chemicon 14-601
As to the kind of experiment: Rho kinase inhibition assay (IMAP fluorescence polarization), ROCK1.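 Note: kinase reaction run 60 min at room temperature, then phosphorylated substrate captured on IMAP beads for 30 min, with fluorescence polarization read in mP.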

Another experiment has as its target T2, p70S6K human enzyme (Homo sapiens, UniProt P23443, T412E).
T2 construct: purchased Upstate Chemicon 14-486
Nature of the experiment: p70S6K inhibition assay (IMAP FP).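 Note: kinase reaction run at room temperature, phosphorylated substrate captured on IMAP beads and read as fluorescence polarization in mP, IC50 then converted to Ki.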 The settings on record: 30 μM ATP; Ki=IC50/(1+([ATP Challenge]/EC50 ATP)); read-out: p70S6K Ki, Avg.

In a further experiment the target is T3, ROCK2 (Homo sapiens, UniProt O75116).
T3 construct: purchased Upstate/Chemicon 14-451
T3 sequence (O75116 11-552 limits assumed): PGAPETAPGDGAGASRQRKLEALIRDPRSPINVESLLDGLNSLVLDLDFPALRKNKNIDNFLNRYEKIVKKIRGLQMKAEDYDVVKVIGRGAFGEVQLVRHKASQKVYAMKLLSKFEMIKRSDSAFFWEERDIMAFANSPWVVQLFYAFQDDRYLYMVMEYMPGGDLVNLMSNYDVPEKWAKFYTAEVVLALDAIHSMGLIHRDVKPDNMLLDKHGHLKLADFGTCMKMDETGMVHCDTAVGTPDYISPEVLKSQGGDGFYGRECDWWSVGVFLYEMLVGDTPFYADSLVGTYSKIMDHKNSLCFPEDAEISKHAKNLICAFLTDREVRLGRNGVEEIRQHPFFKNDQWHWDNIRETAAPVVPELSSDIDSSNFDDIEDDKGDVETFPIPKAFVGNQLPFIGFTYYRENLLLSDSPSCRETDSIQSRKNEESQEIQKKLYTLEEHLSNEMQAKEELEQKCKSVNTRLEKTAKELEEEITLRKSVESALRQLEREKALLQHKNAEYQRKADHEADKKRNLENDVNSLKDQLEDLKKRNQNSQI
Nature of the experiment: Rho kinase inhibition assay (IMAP fluorescence polarization), ROCK2.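 Note: kinase reaction started with 10 µM ATP and run 60 min at room temperature, then phosphorylated substrate captured on IMAP beads for 30 min and fluorescence polarization read in mP.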

The target of the next experiment is T4, Akt3 human enzyme (Homo sapiens, UniProt Q9Y243).
T4 construct: purchased Upstate Chemicon 14-502
T4 sequence (Q9Y243 whole entry): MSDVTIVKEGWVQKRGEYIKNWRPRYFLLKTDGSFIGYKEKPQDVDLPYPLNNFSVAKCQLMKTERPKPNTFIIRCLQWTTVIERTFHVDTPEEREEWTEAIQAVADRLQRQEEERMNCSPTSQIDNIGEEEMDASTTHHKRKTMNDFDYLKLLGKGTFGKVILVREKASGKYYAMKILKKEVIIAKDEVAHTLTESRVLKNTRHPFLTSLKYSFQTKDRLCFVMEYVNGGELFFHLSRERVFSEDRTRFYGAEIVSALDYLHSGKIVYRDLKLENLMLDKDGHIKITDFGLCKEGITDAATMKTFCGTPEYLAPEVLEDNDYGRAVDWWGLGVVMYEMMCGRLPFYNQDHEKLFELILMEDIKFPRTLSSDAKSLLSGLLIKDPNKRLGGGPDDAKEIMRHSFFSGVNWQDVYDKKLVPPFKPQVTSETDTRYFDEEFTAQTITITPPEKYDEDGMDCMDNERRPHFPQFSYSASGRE
As to the kind of experiment: Akt3 inhibition assay (IMAP FP).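 Note: kinase reaction run 60 min at room temperature after 30 µM ATP start, phosphorylated substrate captured on IMAP beads and read as fluorescence polarization (mP).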 The settings on record: 30 μM ATP; Ki=IC50/(1+([ATP Challenge]/EC50 ATP)); read-out: Akt3 Ki, Avg.

Where [1] appears, read: 10 μM ATP, read-out: ROCK2 Ki, Avg.

Each structure is given as a SMILES string. Where two headings read alike, the source gives them in different places.

T1 sequence (Q13464 17-535 limits assumed): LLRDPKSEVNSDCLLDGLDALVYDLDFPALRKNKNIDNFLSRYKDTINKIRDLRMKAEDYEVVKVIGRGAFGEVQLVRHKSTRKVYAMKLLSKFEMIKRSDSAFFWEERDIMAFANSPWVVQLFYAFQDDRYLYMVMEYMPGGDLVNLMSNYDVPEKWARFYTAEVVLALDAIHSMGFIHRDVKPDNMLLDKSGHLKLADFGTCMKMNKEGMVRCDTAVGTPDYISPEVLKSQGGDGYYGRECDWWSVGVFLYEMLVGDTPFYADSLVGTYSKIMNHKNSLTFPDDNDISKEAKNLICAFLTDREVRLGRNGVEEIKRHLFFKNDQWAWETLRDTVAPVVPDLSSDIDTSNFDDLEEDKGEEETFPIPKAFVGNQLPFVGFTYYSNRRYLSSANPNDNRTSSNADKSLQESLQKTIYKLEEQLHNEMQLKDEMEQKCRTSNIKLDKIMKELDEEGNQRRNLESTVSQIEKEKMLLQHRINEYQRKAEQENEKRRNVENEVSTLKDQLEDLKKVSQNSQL
T2 sequence (P23443 1-421 T412E limits assumed): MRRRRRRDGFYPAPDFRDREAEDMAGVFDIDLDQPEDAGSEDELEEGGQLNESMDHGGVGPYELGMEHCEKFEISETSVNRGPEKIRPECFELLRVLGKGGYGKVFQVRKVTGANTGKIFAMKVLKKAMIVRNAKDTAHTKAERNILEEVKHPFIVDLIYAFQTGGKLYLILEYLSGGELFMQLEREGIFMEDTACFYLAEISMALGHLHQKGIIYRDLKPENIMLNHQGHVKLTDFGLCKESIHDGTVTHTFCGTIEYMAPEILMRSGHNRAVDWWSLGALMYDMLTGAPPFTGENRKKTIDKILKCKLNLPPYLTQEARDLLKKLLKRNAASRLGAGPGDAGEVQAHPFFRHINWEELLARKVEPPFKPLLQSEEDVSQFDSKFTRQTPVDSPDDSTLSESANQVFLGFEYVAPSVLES
Procedure for ROCK1: (§1) Following the pre-incubation, 10 μM ATP was added to initiate the reaction. After 60 minutes at room temperature, Molecular Devices IMAP™ binding solution was added to bind phosphorylated substrate. After 30 minutes of incubation in the presence of the IMAP™ beads, the fluorescence polarization was read and the ratio was reported as mP. IC50 values for compounds and EC50 values for ATP were calculated using the Prism software from Graphpad.
Procedure for ROCK2: as §1

With `Fc1ccc(CN2CCC[C@H](Nc3ccc4[nH]ncc4c3)C2)cc1F` [Compound 1.072, (S)-N-(1-(3,4-difluorobenzyl)piperidin-3-yl)-1H-indazol-5-amine], the Ki on ROCK1 (Avg, 10 μM ATP) turned out to be 33.7 nM; on p70S6K human enzyme, 1130 nM; on ROCK2 (setting [1]), 5.6 nM; on Akt3 human enzyme, 4750 nM.
On the same counts, the results for `Cc1ccc(CN2CCC[C@H](Nc3ccc4[nH]ncc4c3)C2)cc1` [Compound 1.078, (S)-N-(1-(4-methylbenzyl)piperidin-3-yl)-1H-indazol-5-amine] are 36.3 nM, 1680 nM, 3.6 nM and 3270 nM.
On to `NC(=O)Cn1ccc2ccc(CN3CCC[C@@H](Nc4ccc5[nH]ncc5c4)C3)cc21` [Compound 1.106, (R)-2-(6-((3-(1H-indazol-5-ylamino)piperidin-1-yl)methyl)-1H-indol-1-yl)acetamide], for which the Ki at ROCK1 (Avg, 10 μM ATP) is 223 nM; on p70S6K human enzyme, 1330 nM; on ROCK2 (setting [1]), 15.1 nM; at Akt3 human enzyme it was 3910 nM.
Taken in the same sequence, the figures for `c1ccc(CN2CCC[C@@H](Nc3ccc4[nH]ncc4c3)C2)cc1` [Compound 1.110, (R)-N-(1-benzylpiperidin-3-yl)-1H-indazol-5-amine] were 59 nM, 1300 nM, 11.2 nM and 463 nM.
Taken in the same sequence, the figures for `O=C(COc1cccc(CN2CCC[C@@H](Nc3ccc4[nH]ncc4c3)C2)c1)N1CCOCC1` [Compound 1.127, (R)-2-(3-((3-(1H-indazol-5-ylamino)piperidin-1-yl)methyl)phenoxy)-1-morpholinoethanone] were 96.6 nM, 2070 nM, 11.2 nM and 975 nM.
Taken in the same sequence, the figures for `Brc1ccc(CN2CCC[C@H](Nc3ccc4[nH]ncc4c3)C2)cc1` [Compound 1.142, (S)-N-(1-(4-bromobenzyl)piperidin-3-yl)-1H-indazoi-5-amine] were 104 nM, 2520 nM, 12 nM and 8270 nM.
In the case of `Cc1ccc(CN2CC[C@@H](Nc3cccc4cnccc34)C2)cc1OCC(=O)OC(C)(C)C` [Compound 2.071, (R)-tert-butyl 2-(5-((3-(isoquinolin-5-ylamino)pyrrolidin-1-yl)methyl)-2-methylphenoxy)acetate], the Ki on ROCK1 (Avg, 10 μM ATP) came to 21.2 nM; at ROCK2 (setting [1]) it was 11.9 nM.
For the compound `OCCn1cc(CN2CC[C@@H](Nc3cccc4cnccc34)C2)c2ccccc21` [Compound 2.072, (R)-2-(3-((3-(isoquinolin-5-ylamino)pyrrolidin-1-yl)methyl)-1H-indol-1-yl)ethanol], the Ki at ROCK1 (Avg, 10 μM ATP) was 7.5 nM; at ROCK1 (average Ki), 7.5 nM; on ROCK2 (setting [1]) it was 4.4 nM; at ROCK2 (average Ki, read-out: ROCK2 Ki) it was 4.4 nM.
Turning to `Cc1ccc(CN2CC[C@@H](Nc3cccc4cnccc34)C2)cc1OCC(=O)O` [Compound 2.073, (R)-2-(5-((3-(isoquinolin-5-ylamino)pyrrolidin-1-yl)methyl)-2-methylphenoxy)acetic acid], the Ki was determined as 12.7 nM on ROCK1 (Avg, 10 μM ATP); 12.7 nM on ROCK1 (average Ki); 4.2 nM at ROCK2 (setting [1]); 4.2 nM on ROCK2 (average Ki, read-out: ROCK2 Ki).
As for `c1cc(N[C@@H]2CCN(Cc3nc4ccccc4[nH]3)C2)c2ccncc2c1` [Compound 2.074, (R)-N-(1-((1H-benzo[d]imidazol-2-yl)methyl)pyrrolidin-3-yl)isoquinolin-5-amine], the Ki was determined as 133 nM at ROCK1 (Avg, 10 μM ATP) and 36.4 nM on ROCK2 (setting [1]).
Turning to `Cn1c(CN2CC[C@@H](Nc3cccc4cnccc34)C2)nc2ccccc21` [Compound 2.075, (R)-N-(1-((1-methyl-1H-benzo[d]imidazol-2-yl)methyl)pyrrolidin-3-yl)isoquinolin-5-amine], the Ki turned out to be 123 nM on ROCK1 (Avg, 10 μM ATP) and 21.7 nM on ROCK2 (setting [1]).
On to `Cc1ccc(CN2CC[C@@H](Nc3cccc4cnccc34)C2)cc1NS(C)(=O)=O` [Compound 2.076], for which the Ki at ROCK1 (Avg, 10 μM ATP) worked out at 8 nM; on ROCK1 (average Ki), 8 nM; on ROCK2 (setting [1]) it was 2.4 nM; at ROCK2 (average Ki, read-out: ROCK2 Ki), 2.4 nM.
`Cc1c(CN2CC[C@@H](Nc3cccc4cnccc34)C2)cccc1NS(C)(=O)=O` [Compound 2.078, (R)-N-(3-((3-(isoquinolin-5-ylamino)pyrrolidin-1-yl)methyl)-2-methylphenyl)methanesulfonamide]: the Ki at ROCK1 (Avg, 10 μM ATP) was 18.3 nM; at ROCK1 (average Ki), 18.3 nM; on ROCK2 (setting [1]), 2.6 nM; on ROCK2 (average Ki, read-out: ROCK2 Ki) it was 2.6 nM.
Turning to `Cc1ccc(CN2CC[C@@H](Nc3cccc4c[n+]([O-])ccc34)C2)cc1OCCO` [Compound 2.080, (R)-5-(1-(3-(2-hydroxyethoxy)-4-methylbenzyl)pyrrolidin-3-ylamino)isoquinoline 2-oxide], the inhibitory constant (Ki) at ROCK1 (Avg, 10 μM ATP) turned out to be 214 nM; on ROCK2 (setting [1]), 126 nM.
Take `[O-][n+]1ccc2c(N[C@@H]3CCN(Cc4cccc(OCCO)c4)C3)cccc2c1` [Compound 2.081, (R)-5-(1-(3-(2-hydroxyethoxy)benzyl)pyrrolidin-3-ylamino)isoquinoline 2-oxide]: the Ki at ROCK1 (Avg, 10 μM ATP) came to 1450 nM; on ROCK2 (setting [1]), 1110 nM.
In the case of `CSc1nccc(CN2CC[C@@H](Nc3cccc4cnccc34)C2)n1` [Compound 2.082, (R)-N-(1-((2-(methylthio)pyrimidin-4-yl)methyl)pyrrolidin-3-yl)isoquinolin-5-amine], the Ki on ROCK1 (Avg, 10 μM ATP) was 132 nM; on ROCK1 (average Ki) it was 132 nM; at ROCK2 (setting [1]) it was 9 nM; at ROCK2 (average Ki, read-out: ROCK2 Ki), 9 nM.
With `c1cc(N[C@@H]2CCN(Cc3ccncn3)C2)c2ccncc2c1` [Compound 2.083, (R)-N-(1-(pyrimidin-4-ylmethyl)pyrrolidin-3-yl)isoquinolin-5-amine], the Ki at ROCK1 (Avg, 10 μM ATP) stood at 1880 nM; at ROCK2 (setting [1]), 858 nM.
On to `c1cc(N[C@@H]2CCN(Cc3cncnc3)C2)c2ccncc2c1` [Compound 2.084, (R)-N-(1-(pyrimidin-5-ylmethyl)pyrrolidin-3-yl)isoquinolin-5-amine], for which the Ki at ROCK1 (Avg, 10 μM ATP) is 1170 nM; at ROCK2 (setting [1]) it was 350 nM.
Take `c1cnc(CN2CC[C@@H](Nc3cccc4cnccc34)C2)nc1` [Compound 2.085, (R)-N-(1-(pyrimidin-2-ylmethyl)pyrrolidin-3-yl)isoquinolin-5-amine]: the Ki at ROCK1 (Avg, 10 μM ATP) is 2390 nM; on ROCK2 (setting [1]), 812 nM.
Taken in the same sequence, the figures for `c1cc(N[C@@H]2CCN(Cc3cnccn3)C2)c2ccncc2c1` [Compound 2.086, (R)-N-(1-(pyrazin-2-ylmethyl)pyrrolidin-3-yl)isoquinolin-5-amine] were 1250 nM and 358 nM.
In the case of `NS(=O)(=O)c1ccc2nc(CN3CC[C@@H](Nc4cccc5cnccc45)C3)[nH]c2c1` [Compound 2.087, (R)-2-((3-(isoquinolin-5-ylamino)pyrrolidin-1-yl)methyl)-1H-benzo[d]imidazole-6-sulfonamide], the Ki stood at 896 nM on ROCK1 (Avg, 10 μM ATP) and 59.3 nM on ROCK2 (setting [1]).
On to `c1cc(N[C@@H]2CCN(Cc3ccsc3)C2)c2ccncc2c1` [Compound 2.088, (R)-N-(1-(thiophen-3-ylmethyl)pyrrolidin-3-yl)isoquinolin-5-amine], for which the inhibition constant (Ki) at ROCK1 (Avg, 10 μM ATP) was 38.7 nM; on ROCK2 (setting [1]) it was 13.6 nM.
Taken in the same sequence, the figures for `O=[N+]([O-])c1cc(CN2CC[C@@H](Nc3cccc4cnccc34)C2)cs1` [Compound 2.089, (R)-N-(1-((5-nitrothiophen-3-yl)methyl)pyrrolidin-3-yl)isoquinolin-5-amine] were 102 nM and 32.9 nM.
Taken in the same sequence, the figures for `c1csc(CN2CC[C@@H](Nc3cccc4cnccc34)C2)c1` [Compound 2.090, (R)-N-(1-(thiophen-2-ylmethyl)pyrrolidin-3-yl)isoquinolin-5-amine] were 53.3 nM and 19.5 nM.
On the same counts, the results for `Cc1nc(CN2CC[C@@H](Nc3cccc4cnccc34)C2)c(C)o1` [Compound 2.091, (R)-N-(1-((2,5-dimethyloxazol-4-yl)methyl)pyrrolidin-3-yl)isoquinolin-5-amine] are 776 nM and 237 nM.
`O=c1[nH]ccc2c(N[C@@H]3CCN(Cc4cccc(OCCO)c4)C3)cccc12` [Compound 2.092, (R)-5-(1-(3-(2-hydroxyethoxy)benzyl)pyrrolidin-3-ylamino)isoquinolin-1(2H)-one]: the Ki on ROCK1 (Avg, 10 μM ATP) was determined as 1130 nM; on ROCK2 (setting [1]) it was 458 nM.
As for `Cc1ccc(CN2CC[C@@H](Nc3cccc4c(=O)[nH]ccc34)C2)cc1OCCO` [Compound 2.093, (R)-5-(1-(3-(2-hydroxyethoxy)-4-methylbenzyl)pyrrolidin-3-ylamino)isoquinolin-1(2H)-one], the Ki was found to be 576 nM on ROCK1 (Avg, 10 μM ATP) and 128 nM at ROCK2 (setting [1]).
Consider `COc1c(CN2CC[C@@H](Nc3cccc4cnccc34)C2)cccc1NS(C)(=O)=O` [Compound 2.096, (R)-N-(3-((3-(isoquinolin-5-ylamino)pyrrolidin-1-yl)methyl)-2-methoxyphenyl)methanesuifonamide], for which the Ki was 70.2 nM at ROCK1 (Avg, 10 μM ATP); 70.2 nM on ROCK1 (average Ki); 9.6 nM at ROCK2 (setting [1]); 9.6 nM on ROCK2 (average Ki, read-out: ROCK2 Ki).
For `COc1ccc(CN2CC[C@@H](Nc3cccc4cnccc34)C2)cc1NS(C)(=O)=O` [Compound 2.098, (R)-N-(5-((3-(isoquinolin-5-ylamino)pyrrolidin-1-yl)methyl)-2-methoxyphenyl)methanesulfonamide], the inhibition constant (Ki) on ROCK1 (Avg, 10 μM ATP) stood at 382 nM; at ROCK2 (setting [1]), 73.5 nM.
As to `Cc1ccc(CN2CC[C@@H](Nc3cccc4cnccc34)C2)cc1OCC(N)=O` [Compound 2.099, (R)-2-(5-((3-(isoquinolin-5-ylamino)pyrrolidin-1-yl)methyl)-2-methylphenoxy)acetamide], the Ki is 15 nM at ROCK1 (Avg, 10 μM ATP); 15 nM on ROCK1 (average Ki); 3.8 nM at ROCK2 (setting [1]); 3.8 nM on ROCK2 (average Ki, read-out: ROCK2 Ki).
